Experimental findings from patent publication US20240148728A1, “NOVEL METHOD TO BLOCK IN[…] DEATH AND IL-1BETA SECRETION CAUSED BY […] UV I[…] GENETIC AND CHEMICAL INHIBITORS OF ZAKA AND THE NLRP1 INFLAMMASOME” (priority 2021, published 2024) are described below.

Data set [1] deals with 293T-ASC-GFP-NLRP1. The format is cell-based, human.
Data set [2] relates to 3D human organotypic skin. Nature of the data set: 3D organotypic skin histology and cleaved GSDMD-NT immunostaining. The format is cell-based. The protocol: Organotypic cultures were generated by adapting a previously described protocol (Arnette et al., 2016). Briefly, 2 ml of collagen I (4 mg/ml; Corning, #354249) mixed with 7.5×10^5 human fibroblasts were allowed to polymerize over 1-m1 acellular collagen I in 6-well culture inserts (Falcon, #353102) placed in 6-well deep well plate (Falcon, #355467). After 24 hours, 1×10^6 primary human keratinocytes were seeded into the inserts and kept submerged in a 3:1 DMEM (Hyclone, #SH30243.01) and F12 (Gibco, #31765035) mixture with 10% FBS (Hyclone, #SV30160.03), 100 U/ml penicillin-streptomycin (Gibco, #15140122), 10 μM Y-27632 (Tocris, #1254), 10 ng/ml EGF (Sigma-Aldrich, #E9644), 1×10^−10 M cholera toxin (Enzo, #BML-G117-001), 0.4 μg/ml hydrocortisone (Sigma-Aldrich, #H0888), 0.0243 mg/ml adenine (Sigma-Aldrich, #A2786), 5 μg/ml insulin (Sigma-Aldrich, #12643), 5 μg/ml transferrin (Sigma-Aldrich, #T2036) and 2×10^−9 M 3,3′,5′-triiodo-L-thyronine (Sigma-Aldrich, #T6397). After another 24 hours, the organotypic cultures were then raised at the air-liquid interface and fed with the submerged media (without Y-27632 and EGF) below the insert to induce epidermal differentiation. The air-lifting medium was replaced every 2 days and treatments began 10-14 days after airlifting. Organotypic cultures were then harvested 24 hours after treatment and formalin fixed for 24 hours. Fixed tissues were then embedded into wax for histological purposes.
For immunohistochemistry staining of cleaved N-terminal GSDMD a previously established protocol with modifications was used [Wang et al., Cell 180:941-955.e20 (2020)]. Briefly, 5 μm formalin fixed and paraffin embedded sections were deparaffinized and rehydrated through a series of alcohol. The sections were then rehydrated in an antigen retrieval buffer (Dako, Tris-EDTA, pH 9). Sections were then blocked in goat serum for 20 mins at RT before primary antibody incubated overnight at 4° C. Immunostaining was visualised using DAB substrate and chromogen detection kit (Dako, #K3468). Sections were then counterstained with Myer's Hematoxylin.

Data set [3] deals with aortic endothelial cells (HAECs). Nature of the data set: Inflammasome activation and pyroptosis in aortic endothelial cells. The note with it: ANS 1 μM. The format is cell-based, human.
Data set [4] concerns NLRP1-NT. Nature of the data set: NLRP1 cleavage / NLRP1-NT level by immunoblot. The format is cell-based, human. The source says:
The following antibodies were used in this study: cleaved PARP1 (Abclonal, #WH162766), Cleaved CASP3 (Abclonal, #WH154646), Full length GSDMD-FL (Abcam, #ab210070), IL1β p17 specific (CST, #83186S), CARD8 (Abcam, CARD8-NT: ab19485, CARD8-CT: ab241186), DPP9 (Abcam, ab226334), c-Myc (Santa Cruz Biotechnology, #sc-40), HA tag (Santa Cruz Biotechnology, #sc-805), GAPDH (Santa Cruz Biotechnology, #sc-47724), ASC (Adipogen, #AL-177), CASP1 (Santa Cruz Biotechnology, #sc-622), 11_1B (R&D systems, #AF-201), FLAG (SigmaAldrich, #F3165), NLRP1 (R&D systems, #AF6788), IL18 (Abcam ab207324), cleaved GSDMD-NT (Asp275) (Cell Signaling Technology, #36425), RPL31 (Abclonal, #WH162766), CASP7 (Abcam, ab255818), CASP8 (Abcam, ab32397), cleaved CASP3 (Cell Signaling Technology, #9664). All horseradish peroxidase (HRP)— conjugated secondary antibodies were purchased from Jackson Immunoresearch (goat anti-mouse IgG: 115-035-166; goat anti-rabbit IgG: 111-035-144; and donkey anti-goat IgG: 705-005-147). Blue-Native PAGE was carried out using the Native-PAGE system (ThermoFisher) with 10-20 μg of total lysate. For SDS-PAGE using whole cell lysates, cells were resuspended in tris-buffered saline 1% NP-40 with protease inhibitors (Thermo Scientific, #78430). Protein concentration was determined using the Bradford assay (Thermo Scientific, #23200) and […] of protein loaded, a part from cleaved GSDMD-NT visualisation where […] of protein was used. All primary antibodies were used at 250 ng/ml. Visualisation of ASC oligomerization was previously described (Robinson et al., 2020). For analysis of IL1β and IL-18 cleavage in the media by immunoblotting, samples were concentrated using filtered centrifugation (Merck, Amicon Ultra, #UFC5003BIK). Protein samples were run using immunoblotting, and then visualized using a ChemiDoc Imaging system (Bio-Rad). PhosTag SDS-PAGE was carried out using homemade 10% SDS-PAGE gel, with addition of Phos-tag Acrylamide (Wako Chemicals, AAL-107) to a final concentration of 30 μM and manganese chloride(II) (Sigma-Aldrich, #63535) to 60 μM.
In general terms: Immunoblotting shows a protein as a band on a membrane.

Turning to `COc1ccc(C[C@H]2NC[C@H](O)[C@H]2OC(C)=O)cc1` [ANS, Anisomycin], in data set [1] (ANS 1 μM, LTM 1 μg/ml, STS 1 μM), the “ASC-GFP speck formation, screen of cytotoxic chemicals” value is on record as “identified two hits”. Moreover, the “percentage of cells with ASC-GFP specks compared with VbP” value in data set [1] (equivalent concentrations) is “to a greater extent than VbP at equivalent concentrations”. Also, in data set [1] (increasing levels of ANS), the “dose dependence of percentage of cells with ASC-GFP specks” value is “in a dose-dependent manner (FIG. 2B) up to 20 μM”. Moreover, the epidermal dyskeratosis result in data set [2] (H&E, 24 hours after treatment) is reported as “caused striking epidermal dyskeratosis”. Also, the “cleaved GSDMD N-terminal fragment at the cell membrane” value in data set [2] (immunostaining) is recorded as “prominently enriched at the cell membrane”. The “canonical inflammasome activation and pyroptosis” value in data set [3] was “underwent canonical inflammasome activation and pyroptosis”. In addition, the “specific cleavage of overexpressed NLRP1 (smaller bands)” value in data set [4] (ANS-treated cells) was “did not observe any smaller bands”. Besides, in data set [4] (NLRP1 KO keratinocytes rescued with full-length NLRP1), the “level of intact NLRP1-NT” value is reported as “caused a significant reduction in the level of intact NLRP1-NT”.
